Experimental data reported in patent US10308689B2, “Dengue virus (DV) polypeptide sequences, T cell epitopes and methods and uses thereof” (LA JOLLA INSTITUTE FOR ALLERGY AND IMMUNOLOGY, priority 2010, dated 2019).
Ends that are not written are not given here.

System: PBMC of healthy adult blood donors from Colombo, Sri Lanka
Assay: Ex vivo IFNγ ELISPOT, HLA-matched PBMC of Sri Lankan blood donors
Assay type: cell-based, human
Design: Total Response per epitope: unit not given here
Settings: for # donors responded: number of donors responding to the epitope; for T cell response [SFC]: ex vivo IFNγ SFC/10^6 PBMC; for # of responders: responding donors, HLA allele(s)
[1] = restricting HLA allele and serotype as given
[2] = total over responding donors, restricting HLA allele and serotype as given
[3] = IFNγ ELISPOT response summed over responding donors, per epitope
[4] = HLA-matched PBMC, proteome-wide screen
[5] = HLA allele, supertype and serotype
[6] = summed IFNγ ELISPOT response per epitope, HLA allele and serotype as given

Compound	# donors responded [1]	Total Response per epitope [2]	Total Response per epitope [3]	# donors responded [4]	further results
CC[C@H](C)[C@H](N)C(=O)N[C@@H](C)C(=O)N[C@H](C(=O)N[C@@H](CO)C(=O)N[C@@H](CCSC)C(=O)N[C@@H](C)C(=O)N[C@@H](CC(N)=O)C(=O)N[C@H](C(=O)N[C@@H](Cc1ccccc1)C(=O)O)[C@@H](C)CC)C(C)C	6	1966.7			
CC[C@H](C)[C@H](NC(=O)[C@@H](NC(=O)[C@@H](NC(=O)[C@H](CC(N)=O)NC(=O)[C@H](Cc1c[nH]c2ccccc12)NC(=O)[C@H](Cc1ccccc1)NC(=O)[C@H](CCCCN)NC(=O)CNC(=O)[C@@H]1CCCN1C(=O)[C@@H](N)CO)[C@@H](C)O)[C@@H](C)O)C(=O)O			826.7	3	
CSCC[C@H](N)C(=O)N[C@H](C(=O)N[C@@H](CCC(N)=O)C(=O)N[C@@H](CCCCN)C(=O)N[C@@H](C)C(=O)N[C@@H](CCCNC(=N)N)C(=O)N[C@@H](CC(N)=O)C(=O)N[C@@H](C)C(=O)N[C@@H](CC(C)C)C(=O)O)[C@@H](C)O [MTQKARNAL]			268.3	2	
CC[C@H](C)[C@H](N)C(=O)N[C@@H](C)C(=O)N[C@H](C(=O)N[C@@H](CO)C(=O)N[C@H](C(=O)N[C@@H](C)C(=O)N[C@@H](CC(N)=O)C(=O)N[C@H](C(=O)N[C@@H](Cc1ccccc1)C(=O)O)[C@@H](C)CC)[C@@H](C)O)C(C)C	2	415.0			
GAMLFLISGK	1	23.3			
VPLLAMGCY					# donors responded [5]: 1; T cell response [SFC] (per epitope): 1083 SFC; # of responders: 1; Total Response per epitope [6]: 1083.3
NPWMEDKTPV			191.7	2	
CSCC[C@H](NC(=O)[C@H](CCC(N)=O)NC(=O)[C@H](C)NC(=O)[C@@H](N)Cc1ccc(O)cc1)C(=O)N[C@@H](Cc1c[nH]c2ccccc12)C(=O)N[C@@H](CO)C(=O)N[C@@H](CC(C)C)C(=O)N[C@@H](CCSC)C(=O)N[C@@H](Cc1ccc(O)cc1)C(=O)N[C@@H](Cc1ccccc1)C(=O)O			33.3	1	
CC[C@H](C)[C@H](NC(=O)[C@H](Cc1ccccc1)NC(=O)[C@H](C)NC(=O)[C@@H](N)CCSC)C(=O)N[C@@H](C)C(=O)N[C@@H](Cc1ccccc1)C(=O)N[C@@H](CC(C)C)C(=O)N[C@@H](CCCNC(=N)N)C(=O)N[C@@H](Cc1ccccc1)C(=O)O			146.7	2	
GEFRLRGEQR	3	1373.3			T cell response [SFC] (per epitope): 1373 SFC; # of responders: 3
CSCC[C@H](NC(=O)[C@H](C)NC(=O)CNC(=O)[C@H](CCC(=O)O)NC(=O)[C@@H](N)CCC(N)=O)C(=O)N[C@@H](Cc1c[nH]cn1)C(=O)N[C@H](C(=O)N[C@@H](C)C(=O)N[C@@H](CC(C)C)C(=O)O)[C@@H](C)O [QEGAMHTAL]			40.0	1	
CC[C@H](C)[C@H](N)C(=O)N1CCC[C@H]1C(=O)N[C@@H](CCSC)C(=O)N[C@H](C(=O)NCC(=O)N1CCC[C@H]1C(=O)N[C@@H](CC(C)C)C(=O)N[C@H](C(=O)N[C@@H](C)C(=O)NCC(=O)O)C(C)C)[C@@H](C)O	5	1160.0			
CC[C@H](C)[C@H](NC(=O)[C@H](CO)NC(=O)[C@H](CCCCN)NC(=O)[C@H](CCCNC(=N)N)NC(=O)CNC(=O)[C@H](CO)NC(=O)[C@H](C)NC(=O)[C@@H](N)Cc1ccccc1)C(=O)N[C@H](C(=O)N[C@@H](CC(C)C)C(=O)O)[C@@H](C)O	1	26.7			
KVLNPYMPSV			63.3	1	
YTPEGIIPTL					# donors responded [5]: 1; T cell response [SFC] (per epitope): 872 SFC; # of responders: 1; Total Response per epitope [6]: 871.7
CC(C)C[C@H](NC(=O)[C@H](CO)NC(=O)CNC(=O)[C@H](CS)NC(=O)[C@H](Cc1c[nH]c2ccccc12)NC(=O)[C@H](CCC(N)=O)NC(=O)[C@H](CC(=O)O)NC(=O)[C@H](CCC(=O)O)NC(=O)[C@@H](N)CCCNC(=N)N)C(=O)O			48.3	1	
CSCC[C@H](NC(=O)[C@@H](NC(=O)[C@@H](N)Cc1ccccc1)[C@@H](C)O)C(=O)N[C@@H](CCCNC(=N)N)C(=O)N[C@@H](Cc1c[nH]cn1)C(=O)N[C@@H](CCCCN)C(=O)N[C@@H](CCCCN)C(=O)N[C@@H](C)C(=O)N[C@H](C(=O)N[C@@H](Cc1ccc(O)cc1)C(=O)O)[C@@H](C)O	4	1723.3			T cell response [SFC] (per epitope): 1723 SFC; # of responders: 4
DPRRCLKPV	2	556.7			
CC(C)C[C@H](NC(=O)[C@H](CCCNC(=N)N)NC(=O)[C@@H]1CCCN1C(=O)[C@@H](N)CCCCN)C(=O)N[C@@H](CS)C(=O)N[C@H](C(=O)N[C@@H](CCCNC(=N)N)C(=O)N[C@@H](CCC(=O)O)C(=O)N[C@@H](CCC(=O)O)C(=O)N[C@@H](Cc1ccccc1)C(=O)O)[C@@H](C)O	1	350.0			T cell response [SFC] (per epitope): 350 SFC; # of responders: 1
CC[C@H](C)[C@H](NC(=O)[C@H](CCCCN)NC(=O)[C@H](CO)NC(=O)[C@H](CO)NC(=O)CN)C(=O)N[C@@H](CCCNC(=N)N)C(=O)N[C@@H](Cc1c[nH]c2ccccc12)C(=O)N[C@H](C(=O)N[C@H](C(=O)N[C@@H](CCC(=O)O)C(=O)O)C(C)C)[C@@H](C)CC [GSSKIRWIVE]	2	111.7			
ATGPVLTLW	2	390.0			T cell response [SFC] (per epitope): 390 SFC; # of responders: 2
CC(C)C[C@H](NC(=O)[C@H](CCC(=O)O)NC(=O)[C@H](CC(C)C)NC(=O)[C@H](CCCCN)NC(=O)CNC(=O)[C@H](CC(C)C)NC(=O)[C@H](Cc1c[nH]cn1)NC(=O)[C@H](Cc1c[nH]c2ccccc12)NC(=O)[C@@H]1CCCN1C(=O)CN)C(=O)O	2	495.0			
CC[C@H](C)[C@H](NC(=O)[C@@H](NC(=O)[C@H](Cc1ccccc1)NC(=O)CNC(=O)[C@@H]1CCCN1C(=O)[C@@H](N)Cc1c[nH]cn1)[C@@H](C)O)C(=O)N[C@@H](CC(C)C)C(=O)N[C@@H](C)C(=O)N[C@@H](CC(C)C)C(=O)N[C@@H](Cc1ccccc1)C(=O)O	9	3763.3			
CSCC[C@H](NC(=O)[C@H](Cc1ccccc1)NC(=O)[C@@H](NC(=O)[C@@H]1CCCN1C(=O)[C@@H](N)CC(C)C)[C@@H](C)O)C(=O)N[C@H](C(=O)N[C@@H](CCC(N)=O)C(=O)N[C@@H](CCCCN)C(=O)N[C@@H](C)C(=O)N[C@@H](CCCNC(=N)N)C(=O)O)[C@@H](C)O			1263.3	8	
CC[C@H](C)[C@H](N)C(=O)N1CCC[C@H]1C(=O)N[C@@H](CCSC)C(=O)N[C@@H](C)C(=O)N[C@H](C(=O)N[C@@H](Cc1ccc(O)cc1)C(=O)NCC(=O)N[C@@H](Cc1c[nH]c2ccccc12)C(=O)N[C@@H](CC(N)=O)C(=O)N[C@@H](CC(C)C)C(=O)O)[C@@H](C)O	2	456.7			
GPLVAGGLL	3	748.3			
CSCC[C@H](NC(=O)[C@H](CC(C)C)NC(=O)[C@H](CCCCN)NC(=O)[C@H](CCCCN)NC(=O)[C@@H](NC(=O)CNC(=O)[C@H](CCC(=O)O)NC(=O)[C@H](CCCCN)NC(=O)[C@@H]1CCCN1C(=O)[C@@H](N)CCC(=O)O)[C@@H](C)O)C(=O)O	3	928.3			
CC(C)C[C@H](NC(=O)[C@H](CCC(N)=O)NC(=O)[C@H](CC(N)=O)NC(=O)[C@H](CC(=O)O)NC(=O)[C@H](CCC(N)=O)NC(=O)[C@@H]1CCCN1C(=O)[C@@H](N)[C@@H](C)O)C(=O)N[C@H](C(=O)N[C@@H](Cc1ccc(O)cc1)C(=O)O)[C@@H](C)O					# donors responded [5]: 1; Total Response per epitope [6]: 75.0
CC(C)C[C@H](NC(=O)[C@H](CCCNC(=N)N)NC(=O)[C@H](Cc1c[nH]cn1)NC(=O)[C@H](CC(=O)O)NC(=O)[C@H](CS)NC(=O)[C@H](CC(C)C)NC(=O)[C@H](CCC(N)=O)NC(=O)[C@@H](NC(=O)[C@H](Cc1ccc(O)cc1)NC(=O)[C@@H](N)C(C)C)[C@@H](C)O)C(=O)O					# donors responded [5]: 1; Total Response per epitope [6]: 21.7
CC(C)C[C@H](NC(=O)[C@H](CCC(N)=O)NC(=O)CNC(=O)[C@@H]1CCCN1C(=O)[C@@H](N)CCC(=O)O)C(=O)N[C@@H](CCCCN)C(=O)N[C@@H](CC(C)C)C(=O)N[C@@H](CC(N)=O)C(=O)N[C@@H](Cc1c[nH]c2ccccc12)C(=O)N[C@@H](Cc1ccccc1)C(=O)O	5	581.7			
